The subject of this data set is skin tissue model. Description: Skin irritation test: MTT effective time (ET-50) viable cell assay on skin tissue model. To be noted: for % Viability: skin tissue. Format: cell-based. As for the experimental part: The skin inflammation potential of a cleaning gel of product No. 1 (also known as Double. S Gel (Lot No. 15730A2); hereinafter, referred to as experimental product)) was evaluated using commercially available MTT effective time (ET-50) live cell experiment test and a skin tissue model.
The experiments performed at the Life Science Institute (BioScience Laboratories, Inc.) began on Sep. 2, 2015 and were completed on Sep. 4, 2015. One deviation in SOP generated during the experiments is shown in Tables 1 to 7 below, the protocols and/or SOP deviation recording formats (form number: 99-QA-004) of FIGS. 1 and 2. […] The skin tissue samples were exposed to the experimental product for 1 hour, 4 hours, or 24 hours.
The experimental product was tested undiluted, as provided by the sponsor. Three untreated negative control dermal tissue specimens were exposed for 24 hours.
The first tissue specimen, the second tissue specimen, and the third tissue specimen were exposed to 1.0% Triton X-100 (Lot No. 082615BBA) as a positive control for 1, 4, and 24 hours, respectively.
At the same time as the experimental procedure, MTT control was evaluated, and the evaluation was regarded as a result of direct reduction of the MTT product. […] During the experimental procedure, the frozen tissue was exposed to the experimental product to determine whether the experimental product was effectively washed from tissue.
The absorbance of the specimens was determined using a VERSA Max™ Tunable Microplate Reader (with SOFTmax® PRO Software) set to 570 nm with several […] aliquots of isopropyl alcohol.
Absorbance values were converted into the probabilistic feasibility of tissue culture by SOFTmax® PRO Software. These values were expressed as time-dependent by SOFTmax® PRO Software, and then ET-50 was determined by interpolation. ET-50 is an estimated time when the probabilistic feasibility of tissues falls to 50%.

As to Triton X-100 [Positive Control], the “Irritancy Classification (Expected In-Vivo Irritancy)” value (from MTT ET-50) is on record as “Moderate to Mild Irritation”. Moreover, the “% Viability” value (1 hour exposure) turned out to be 66.51%, the “% Viability” value (4 hours exposure) turned out to be 78.40% and the “% Viability” value (24 hours exposure) worked out at 6.06%. For the setting “tested undiluted, skin tissue exposed 1, 4, 24 hours, time at which viability falls to 50%, by interpolation”, the “MTT ET-50” value came to 4.65 h.

The record behind these values is patent US20190070081A1, “DEODORIZING COSMETIC COMPOSITION AND METHOD FOR PREPARING SAME” (EINS CO., LTD., priority 2015, published 2019).
